Data on one compound can be found in patent US20180264191A1, “SYSTEMS AND METHODS FOR NEURAL DRUG DELIVERY AND MODULATION OF BRAIN ACTIVITY” (priority 2017, published 2018).

Assay [1] relates to hippocampal (CA1) unit. In words: Acute tetrode recording with local micro-injection through MiNDS in anesthetized rats. The class given is in vivo. Particulars: anesthetized rat. The method, then: Acute electrophysiological recordings and micro-injections were performed in anesthetized rats to test the system with a tetrode W electrode. […] The channel impedance values of the tetrode electrode (T-1, T-2, T-3, T-4) were 430, 370, 440, and 370 kΩ. […] The mean of the action potentials recorded from this unit was stable during the experiment (i.e. before first saline infusion, before first and second muscimol infusions), confirming that the unit was present during the trial, as shown in FIGS. 18A-C. […] Peak 1 and Peak 2 are the maximal value of waveforms measured by T-1, T-2, respectively. The projections of the peak values calculated from each recorded action potential are shown in FIG. 18C, reflecting the cluster-cutting used to isolate signals coming from different neurons. […]
The dura was removed and the device was lowered into the brain to a depth of 2.5 mm and a location with unit activity was identified. The local neural signals were recorded with Open Ephys GUI software. Prior to drug infusion, the local signals were recorded for 30 mins to ensure stable spikes were located. After the baseline recording, 150 nl of saline were infused into the site at a flow rate of 100 nl/min and the activity was recorded for another 30 mins. […] Recording was recorded for another 30 mins post muscimol infusion. […]

The subject of assay [2] is local neuronal activity in the neocortex. In words: Unit firing and local field potential recording with serial infusions through L-MiNDS in awake head-fixed monkey. The class given is in vivo, rhesus macaque (Macaca mulatta). Particulars: for rate of detected spike activity (local unit firing): muscimol 2 mg/ml in aCSF, 500 nl at 100 nl/min for 5 mins. The method, then: The functionality of the system (specifically, the L-MiNDS) was confirmed in a large, awake behaving animal model, the rhesus macaque (macacca mulatta) monkey. The L-MiNDS was used to modulate and monitor local neuronal activity in the neocortex of a head-fixed monkey through serial infusions of aCSF and muscimol, which respectively preserve and inhibit baseline unit firing activity, as depicted in FIG. 21A. The 1st vertical line on left indicates the start of aCSF infusion (at 20 mins) and the 2nd vertical line denotes the muscimol infusion (at 63.7 mins). The impedance measurement of the W-electrode was 1.5 MΩ in brain and at pre-implantation in saline was 2 MΩ. Modulation of neuronal firing activity was monitored by recording signals at the MiNDS electrode adjoining the infusion ports. […] Then, aCSF was infused for 5 mins 20 s at an infusion rate of 100 nl/min. This control infusion had minimal effect on the local firing rate and unit waveform during and after the infusion. Muscimol was then infused at the same location for 5 mins at infusion rate of 100 nl/min. […] Vertical and horizontal bars denote 10 μV and 2 ms, respectively.
A second experiment was conducted targeting deeper layers of the neocortical region (i.e., dorsal bank of the cingulate cortex) to determine if recovery of the reduced neural activity through an additional infusion of aCSF could be induced at this adjoining site. This larger infusion of aCSF was indeed effective in reversing the inhibitory effect of muscimol, as shown by the observation of an increasing frequency of spikes with waveforms closely resembling those found during the pre-muscimol period, as depicted in FIGS. 23A-23C. In particular, the 1st vertical line on left in FIG. 23A denotes the start of aCSF infusion (at 20 mins), the second vertical line represents the start of muscimol infusion (at 43 mins), and the third vertical line denotes the start of aCSF infusion (at 92 mins). In FIG. 23Cm vertical and horizontal bars denote 10 μV and 2 ms, respectively. […] Compared to prior work, this is the first system that allows serial infusion of multiple distinct solutions to be delivered in a focal, independent manner in a NHP. The system's integrated electrode can also be used to record local field potentials (LFPs), as shown in FIGS. 24A and 24B, which may be important for clinical applications that may require chronic recording from a fixed brain location. For example, pathological beta-band LFP in Parkinson's disease and/or epileptic discharges in epilepsy could be recorded from the chronically integrated electrode to track and treat dysfunction in future applications. In FIG. 24A, two curves for each period represent 95% confidence intervals. Each pair of curves correspond to signals averaged over 10 mins periods as labeled in the legend at the top right of each plot. […] Alpha (5-11 Hz) and beta (11-30 Hz) band power fluctuate without correlation to the infusions. The prominent power at 60 Hz is due to coupling of power mains noise. […]
Solutions used for infusion through the MiNDS were aCSF (artificial cerebrospinal fluid, Tocris Biosciences) and muscimol (2 mg/ml in aCSF, Sigma-Aldrich). The MiNDS and guide cannula were sonicated in a detergent solution (Alconox, Inc.), rinsed with water, and then sonicated and soaked in 70% ethanol followed by water until they were ready for implantation. […]

Assay [3] has as its system substantia nigra (SN). In words: Behavioral study: rotations after unilateral infusion into the substantia nigra through S-MiNDS with iPrecio pumps. Type of assay: in vivo. As to conditions: rat. The method, then:
The capability of interfacing the system with deep brain structures to remotely control behavior was tested. In experiments in rats, the S-MiNDS was implanted in the SN and was connected to two implanted iPrecio pumps, containing either saline or muscimol. Unilateral delivery of muscimol to the SN is known to evoke preferential ipsilateral rotation, reflecting a hemiparkinsonian state. […] These studies were performed multiple times on each of multiple animals. This illustrates the ability of system to repeatedly and reproducibly deliver small volumes of drug to effect a reversible behavioral change.
A similar protocol as described above was used to implant the MiNDS with the iPrecio pumps. Rats were anesthetized, and their heads were shaved and disinfected. A longer incision was made to accommodate the insertion of the pumps. As aforementioned, the MiNDS burr hole was made 5 mm posterior to the bregma and 2.5 mm lateral to the midline, and a support screw burr hole was made 3 mm posterior and 2 mm lateral to the bregma, on the opposite side. The screw was implanted, such that 1 mm protruded beneath the skull. A subcutaneous cavity for the pump was made by blunt dissection, and the pump was inserted through the incision. The MiNDS probe was implanted and cemented to the skull using C&B Metabond adhesive (Parkell Inc., Edgewood N.Y.) and Orthojet dental cement (Lange Dental, Wheeling, Ill. USA), and the incision was closed using 5-0 monofilament non-resorbable suture and 3M tissue glue. Animals were closely observed during the recovery period and given analgesics and wet food. By 1 week post-surgery, in all cases animals were ambulatory and otherwise healthy. Animals implanted with pumps were used for the behavioral studies described below. […]
A rat was implanted with the MiNDS and two pumps pre-loaded and flushed with either saline or muscimol, as described above. The animal was placed within the dish and recorded over the course of 5 hrs. […]
Videos were imported into Ethovision, where they were analyzed for ipsilateral and contralateral rotations over time. […]

Where [4] appears, read: 1.67 μl of muscimol (0.2 mg/ml) into SN, 180° turns.

In the case of `NCc1cc(=O)[nH]o1` [muscimol], the “firing rate of hippocampal (CA1) unit after first muscimol injection” value in assay [1] (local infusion via iPrecio pump, first muscimol infusion at 60 mins) was “a slow decrease of the firing rate occurred”. Further, the “rate of detected spike activity of hippocampal (CA1) unit after second muscimol injection” value in assay [1] (second muscimol infusion at 90 mins) is “abolished the rate of detected spike activity”. In assay [2] (after muscimol infusion), the “LFP power for alpha frequencies” value is on record as “persists”; the “LFP power for broadband, beta, and gamma frequency ranges” value is “decreases significantly”. The “LFP broadband power from 30-100 Hz” value in assay [2] (after muscimol infusion, 10 mins intervals) is reported as “decreases immediately following muscimol infusion”. Also, the “rate of detected spike activity (local unit firing)” value in assay [2] was “immediately suspended activity”. Besides, the “rate of detected spike activity (local unit firing)” value in assay [2] (listed as Muscimol) is recorded as “immediately decreased the rate of detected spike activity”. In assay [3] (setting [4]), the counter-clockwise rotations entry is on record as “remained the same” and the “increase in the number of clockwise rotations” value is 52 fold. Further, in assay [3] (remotely controlled infusion of 1.67 μl of muscimol (0.2 mg/ml) into SN), the “parkinsonian behavior (preferential ipsilateral rotation)” value was “reliably induced”.
